These results are taken from ChEMBL document CHEMBL5506022, “Discovery of Novel Dual Inhibitors Targeting Mutant IDH1 and NAMPT for the Treatment of Glioma with IDH1Mutation” (J Med Chem, 2024).

pIC50: −log10 of the molar value. The source made the active and inactive calls. The calls are words filed in the database; no cut-off is given here.

In assay [1] the test system is U-87MG ATCC. The class given is functional, cell-based. To be noted: Homo sapiens, dose 0.5 µM, time 48.0 hrs.
Assay [2] deals with U-87 MG. Format: functional, cell-based, U-87MG ATCC. To be noted: Homo sapiens, 48 h.
Assay [3] relates to U-87 MG. Put plainly: Antiproliferative activity against human U-87 MG cells harboring wildtype IDH1 assessed as inhibition of cell growth incubated for 72 hrs by CCK8 assay. Format: functional, cell-based, U-87MG ATCC. A general note: Formazan colour is commonly taken as a measure of viable cells.
In assay [4] the test system is U-87 MG. In words: Synergistic antiproliferative activity against human U-87 MG cells harboring wildtype IDH1 assessed as combination index incubated for 48 hrs in presence of FK866 by CCK8 assay. Format: functional, U-87MG ATCC.
The test system of assay [5] is U-87 MG. The class given is functional, cell-based, U-87MG ATCC. As to conditions: Homo sapiens, 72 h.
Assay [6] relates to U-87 MG. In words: Antiproliferative activity against human U-87 MG cells harboring wildtype IDH1 assessed as inhibition of cell growth incubated for 48 hrs by CCK8 assay. Format: functional, cell-based, U-87MG ATCC.
Assay [7] has as its system U-87 MG. Format: functional, Homo sapiens, U-87MG ATCC. To be noted: dose 300 mg/kg; route po; time 35 day.
Assay [8] relates to U-87 MG. The class given is functional, Homo sapiens, U-87MG ATCC. To be noted: dose 300 mg/kg; route po; time 35 day. The source holds these as a separate data set.
Assay [9] relates to U-87 MG. Format: functional, organism-based. As to conditions: Homo sapiens; U-87MG ATCC; dose 300.0 mg/kg, route po, time 35.0 day.
Assay [10] concerns U-87 MG. Format: functional, cell-based, U-87MG ATCC. As to conditions: Homo sapiens, 24 h.
Assay [11] relates to U-87MG ATCC. Put plainly: Effect on intracellular NADP+ level in human U-87 MG cells harboring wildtype IDH1. The class given is functional, cell-based.
Assay [12] concerns U-87 MG. Put plainly: cells. As to conditions: Homo sapiens, 48 h, read-out: Activity.
Assay [13] relates to U-87 MG. Put plainly: Synergistic antiproliferative activity against human U-87 MG cells harboring wildtype IDH1 assessed as inhibition of cell growth incubated for 48 hrs in presence of FK866 by CCK8 assay. The class given is functional, cell-based, U-87MG ATCC.
For assay [14], the system named is U-87 MG. Put plainly: Antiproliferative activity against human U-87 MG cells harboring wildtype IDH1 assessed as inhibition of cell growth incubated for 24 hrs by CCK8 assay. The class given is functional, cell-based, U-87MG ATCC.
Assay [15] deals with U-87 MG. The class given is functional, Homo sapiens, U-87MG ATCC. To be noted: time 48 hrs.
The subject of assay [16] is U-87 MG. The class given is functional, cell-based, U-87MG ATCC. As to conditions: Homo sapiens, 48 h. The source holds these as a separate data set.

On to `Cc1cc([C@H](C)Nc2nccc(N3C(=O)OC[C@@H]3[C@H](C)F)n2)ncc1-c1ccnc(C(F)(F)F)c1`, for which the outcome with U-87MG ATCC [1] and in the assay with U-87MG ATCC [11] was inactive. Moreover, the pIC50 is 6.35 with U-87 MG [2]; 5.45 in the assay on U-87 MG [3]; 6.44 in the assay with U-87 MG [5]; 5.12 in the assay with U-87 MG [6]; 5.98 with U-87 MG [10]; 5.77 in the assay on U-87 MG [13]. The pIC50 was 4.70 in the assay with U-87 MG [14] and 6.36 in the assay with U-87 MG [16]. Moreover, the CI with U-87 MG [4] is recorded as 0.83; with U-87 MG [15], 0.91. The results for the MST in the assay on U-87 MG [7] and in the assay on U-87 MG [8] were 26.5 days and 23.5 days, respectively. Besides, the outcome in the assay with U-87 MG [9] was Active. Besides, the viability at 1 µM with U-87 MG [12] is 34.7%.

In general, pIC50 refers to −log10 of the IC50, conventionally taken in molar units.
